Data published in patent publication US20250163119A1, “COMPOUNDS FOR THE TREATMENT OF DIABETES OR OBESITY” (Eli Lilly and Company, priority 2023, published 2025).
Values joined by “and” are separate entries in the source; they are usually repeats but may differ in a detail not shown here. Equal values may be shown once. Read-outs that look alike come from different tables or passages of the source. *1 amine or outer side, *2 acyl side, *3 side chain or, on linkers, in order; H or OH if unused. Side-chain parts run from the residue outwards. [ ]: non-standard residue; d: D form. The star is where a group is joined. C20 diacid = O=C(O)CCCCCCCCCCCCCCCCCCC(=O)*; γGlu = O=C(O)[C@H](CCC(=O)[*:2])N[*:1]; εLys = N[C@@H](CCCCN[*:1])C(=O)[*:2]; pGlu = O=C1CC[C@@H](C(=O)O)N1; αMeL = CC(C)C[C@](C)(N)C(=O)O; AEEA = NCCOCCOCC(=O)O; Aib = CC(C)(N)C(=O)O

Assays:
[1] = target: T1, human CRHR1 (Homo sapiens, UniProt P34998); experiment: Human CRHR1 cAMP assay (HTRF) in HEK293 cells stably expressing human CRHR1; format: cell-based; details: HEK293 cells overexpressing human CRHR1; relative EC50, maximum 66 nM human UCN1; mean ± SE; read-out: hCRHR1 cAMP EC50 (pM, ± SE)
T1 construct: expressed in transfected cells
T1 sequence (P34998 24-415): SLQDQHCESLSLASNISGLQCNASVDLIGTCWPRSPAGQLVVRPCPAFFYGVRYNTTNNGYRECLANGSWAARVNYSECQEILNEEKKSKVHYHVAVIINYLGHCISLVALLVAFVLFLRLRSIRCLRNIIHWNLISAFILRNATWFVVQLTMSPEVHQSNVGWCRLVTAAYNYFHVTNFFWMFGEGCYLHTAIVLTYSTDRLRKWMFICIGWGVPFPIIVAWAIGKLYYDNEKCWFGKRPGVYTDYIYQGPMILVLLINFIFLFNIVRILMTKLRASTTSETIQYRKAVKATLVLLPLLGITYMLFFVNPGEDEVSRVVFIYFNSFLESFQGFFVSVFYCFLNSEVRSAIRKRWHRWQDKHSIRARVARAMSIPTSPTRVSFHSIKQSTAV
Procedure, shortened: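 Stably expressing HEK293 clones received peptide concentration series in phosphodiesterase-inhibited buffer (0.25 mM IBMX, pH 7.4). After receptor-specific incubation (CRHR1 1 h at 37° C; CRHR2 30 min at room temperature), cells were lysed with HTRF cAMP reagents for 60 min and the 665/620 nm ratio recorded.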

[2] = Pharmacokinetics in Yucatan mini-pigs, single subcutaneous or intravenous dose; format: in vivo
Description: Plasma concentrations of compounds were determined by LC/MS methods. For each assay, the compound and an internal standard (IS), were extracted from 100% mouse, rat, pig, or monkey plasma (70 μL) using Isopropanol-Methanol. Two distinct layers were formed upon centrifugation with the compound and the IS located in the supernatant layer. An aliquot of the supernatant (150 μL) was transferred to a Waters Sirocco Protein Precipitation Plate. The supernatant was eluted using a positive pressure manifold. The supernatant was mixed with 100-2 Water-Formic acid (400 μL) in a pretreated Sep-Pak tC18 SPE plate and eluted to waste. The peptide and IS were eluted with Acetonitrile-Formic acid (100 μL) in 2 steps (50 μL each step). The elution (40 μL) from SPE plate was mixed with diluent solution (1.875 μL 5× invitrosol and 3.125 μL 1% formic acid in water, 80 μL). A final sample (10 μl) was loaded onto a Xselect CSH C18 IS column (3.5 μm 2.1×20 mm). The column effluent was directed into a Thermo Fisher Scientific Orbitrap (Exploris 240) mass spectrometer for detection and quantitation.
Male Yucatan mini-pigs were administered a single subcutaneous dose or intravenous dose (19 or 99 nmol/kg) of compound in 40 mM Tris-HCl 5% D-mannitol (pH 8) at a volume of 0.01 or 0.05 mL/kg. Blood was collected from each animal at 0.083 (IV only), 0.5, 3, 6, 24, 48, 72, 96, 168, 240, 336, 408, and 504 hours postdose for pharmacokinetic characterization.

[3] = male Yucatan pigs, single subcutaneous dose 18 nmol/kg, individual animal
[4] = male, Yucatan mini-pig, minipig, plasma, iv, 18 nmol/kg, single intravenous dose 18 nmol/kg, individual animal
[5] = male, Yucatan mini-pig, minipig, plasma, iv, 18 nmol/kg, single intravenous dose 18 nmol/kg, mean
[6] = single intravenous dose 18 nmol/kg, male Yucatan pigs, individual animal
[7] = male Yucatan pigs, single subcutaneous dose 19 nmol/kg, individual animal
[8] = male, Yucatan mini-pig, minipig, plasma, iv, 19 nmol/kg, single intravenous dose 19 nmol/kg, individual animal
[9] = male, Yucatan mini-pig, minipig, plasma, iv, 19 nmol/kg, single intravenous dose 19 nmol/kg, mean
[10] = single intravenous dose 19 nmol/kg, male Yucatan pigs, individual animal

## [pGlu]GSPSGIVTS[αMeL]DVPT[Aib][αMeL]LQKILEQERAEKARQQAK([γGlu-AEEA-εLys-C20 diacid])EAAEILAQV-NH2 [SEQ ID NO: 22, Pyr-GSPSGIVTS αMeL DVPT Aib αMeL LQKILEQERAEKARQQAK(γE-(2-[2-(2-Amino-ethoxy)-ethoxy]-acetyl)-ϵK-CO-(CH2)18-CO2H)EAAEILAQV-NH2]
[1]
  EC50: > 1e+07 pM
[2]; Yucatan mini-pig, minipig, plasma, sc, male Yucatan pigs, single subcutaneous dose 18 nmol/kg, Mean, read-out: AUC0-inf
  AUC0-inf: 22.5 µM·h
[2]; Yucatan mini-pig, minipig, plasma, sc, male Yucatan pigs, single subcutaneous dose 18 nmol/kg, Mean, read-out: Cmax
  Cmax: 154 nM
[2]; [3]
  AUC0-inf: 23.9 µM·h and 21 µM·h
  CL/F: 21.3 mL/day/kg
  Cmax: 165 nM and 143 nM
  T1/2: 85.8 h
  Tmax: 6.0 h
[2]; [4]
  clearance: 19.7 mL/day/kg
  half-life: 90.1 h
[2]; [5]
  clearance: 17.6 mL/day/kg
  half-life: 95.6 h
[2]; male, Yucatan mini-pig, minipig, plasma, sc, 18 nmol/kg, single subcutaneous dose 18 nmol/kg, Mean
  half-life: 82.5 h
[2]; male, Yucatan mini-pig, minipig, plasma, sc, 18 nmol/kg, single subcutaneous dose 18 nmol/kg, Mean, read-out: CL/F (converted)
  CL/F: 20 mL/day/kg
[2]; male, Yucatan mini-pig, minipig, plasma, sc, 18 nmol/kg, single subcutaneous dose 18 nmol/kg, Mean, read-out: Tmax
  Tmax: 15 h
[2]; male, Yucatan mini-pig, minipig, plasma, sc, 18 nmol/kg, single subcutaneous dose 18 nmol/kg, individual animal
  half-life: 79.1 h
[2]; male, Yucatan mini-pig, minipig, plasma, sc, 18 nmol/kg, single subcutaneous dose 18 nmol/kg, individual animal, read-out: CL/F (converted)
  CL/F: 18.6 mL/day/kg
[2]; minipig, plasma, single intravenous dose 18 nmol/kg, male Yucatan pigs, mean, read-out: AUC0-inf
  AUC0-inf: 25.3 µM·h
[2]; minipig, plasma, single intravenous dose 18 nmol/kg, male Yucatan pigs, mean, read-out: C0
  C0: 418 nM
[2]; [6]
  AUC0-inf: 22.3 µM·h and 28.3 µM·h
  C0: 373 nM and 462 nM
  CL: 15.5 mL/day/kg
  T1/2: 101 h

## {C20 diacid-εLys-AEEA-γGlu}-GSPSIVTS[αMeL]DVPT[Aib][αMeL]LQKILEQERAEKARQQATEAAEILAQV-NH2 [SEQ ID NO: 25]
[1]
  EC50: > 1e+07 pM
[2]; Yucatan mini-pig, minipig, plasma, sc, male Yucatan pigs, single subcutaneous dose 19 nmol/kg, Mean, read-out: AUC0-inf
  AUC0-inf: 27.6 µM·h
[2]; Yucatan mini-pig, minipig, plasma, sc, male Yucatan pigs, single subcutaneous dose 19 nmol/kg, Mean, read-out: Cmax
  Cmax: 170 nM
[2]; [7]
  AUC0-inf: 28.3 µM·h and 26.8 µM·h
  CL/F: 17.2 mL/day/kg
  Cmax: 159 nM and 181 nM
  T1/2: 70.4 h
[2]; [8]
  clearance: 10.9 mL/day/kg
  half-life: 106 h
[2]; [9]
  clearance: 11.6 mL/day/kg
  half-life: 96.4 h
[2]; male, Yucatan mini-pig, minipig, plasma, sc, 19 nmol/kg, single subcutaneous dose 19 nmol/kg, Mean
  half-life: 75.6 h
[2]; male, Yucatan mini-pig, minipig, plasma, sc, 19 nmol/kg, single subcutaneous dose 19 nmol/kg, Mean, read-out: CL/F (converted)
  CL/F: 16.8 mL/day/kg
[2]; male, Yucatan mini-pig, minipig, plasma, sc, 19 nmol/kg, single subcutaneous dose 19 nmol/kg, Mean, read-out: Tmax
  Tmax: 24 h
[2]; male, Yucatan mini-pig, minipig, plasma, sc, 19 nmol/kg, single subcutaneous dose 19 nmol/kg, individual animal
  half-life: 80.8 h
[2]; male, Yucatan mini-pig, minipig, plasma, sc, 19 nmol/kg, single subcutaneous dose 19 nmol/kg, individual animal, read-out: CL/F (converted)
  CL/F: 16.3 mL/day/kg
[2]; male, Yucatan mini-pig, minipig, plasma, sc, 19 nmol/kg, single subcutaneous dose 19 nmol/kg, individual animal, read-out: Tmax
  Tmax: 24 h
[2]; minipig, plasma, single intravenous dose 19 nmol/kg, male Yucatan pigs, mean, read-out: AUC0-inf
  AUC0-inf: 39.6 µM·h
[2]; minipig, plasma, single intravenous dose 19 nmol/kg, male Yucatan pigs, mean, read-out: C0
  C0: 534 nM
[2]; [10]
  AUC0-inf: 41.9 µM·h and 37.2 µM·h
  C0: 522 nM and 545 nM
  CL: 12.2 mL/day/kg
  T1/2: 86.8 h
